Test results from US9150528B2, “Compound having detrusor muscle-contracting activity and urethral sphincter muscle-relaxing activity” (ONO PHARMACEUTICAL CO., LTD., priority 2009, dated 2015).

Test system: urethral sphincter
Assay: Relaxation of isolated rat urethra specimens (Magnus system), phenylephrine-induced contraction
Assay type: cell-based
Conditions: for Contractility of the urethral sphincter according to the compound concentration treated: rat urethra specimen
Description: Rats were anesthetized with pentobarbital, followed by abdominal incision to remove the bladders and the urethras. The bladder bodies were cut in the longitudinal direction to prepare strip specimens with a size of about 10×3 mm. Additionally, each of the urethras was also cut in the longitudinal direction to prepare specimens with a size of about 10×3 mm. The prepared specimens were suspended in Krebs buffer (37° C., 5 mL), which was aerated with a mixed gas of 95% O2 and 5% CO2. The tension values of the specimens were measured using a Magnus system equipped with an isometric transducer and an amplifier, and the measured values were recorded on a computer via a data collection system.
The specimens were suspended with a load of about 0.5 g. More than 1 hr later, potassium chloride (100 mmol/L) was added to the suspension and the maximal contraction response was observed. After washing with Krebs buffer, the specimens were suspended with a load of about 0.5 g for stabilization. Thereafter, a phenylephrine (100 μmol/L) was added to the suspension to induce the contraction of the specimens. After stabilization of the contraction-inducing response, the test compound was added in a cumulative manner and the response was observed before and after the treatment of the drug.

Structure (SMILES): C[C@@](O)(C/C=C/[C@H]1CCC(=O)[C@@H]1CCSc1nc(C(=O)O)cs1)CCC(F)=C(F)F [Compound 17, 2-[(2-{(1R,5R)-2-oxo-5-[(1E,4S)-7,8,8-trifluoro-4-hydroxy-4-methyl-1,7-octadien-1-yl]cyclopentyl}ethyl)thio]-1,3-thiazole-4-carboxylic acid]
- Contractility of the urethral sphincter according to the compound concentration treated (0 nmol/L): 5 % of phenylephrine
- Contractility of the urethral sphincter according to the compound concentration treated (1 nmol/L): −2 % of phenylephrine
- Contractility of the urethral sphincter according to the compound concentration treated (10 nmol/L): −9 % of phenylephrine
- Contractility of the urethral sphincter according to the compound concentration treated (100 nmol/L): −36 % of phenylephrine
- Contractility of the urethral sphincter according to the compound concentration treated (1 μmol/L): −83 % of phenylephrine
- Contractility of the urethral sphincter according to the compound concentration treated (10 μmol/L): −89 % of phenylephrine
- effect on the urethral sphincter (summary in words of Table 2): relaxed the urethral sphincter
